# Values quoted from earlier work in patent US20190008969A1, “COMPOSITIONS FOR DRUG DELIVERY” (Tioga Research, Inc., priority 2017, published 2019).
# Settings: spray format at 0.25 wt %
smiles,measurement,value
"C[C@@H]1C[C@H]2[C@@H]3CCC4=CC(=O)C=C[C@]4(C)[C@@]3(F)[C@@H](O)C[C@]2(C)[C@H]1C(=O)CO [desoximetasone, (8S,9S,10S,11S,13S,14S,16R,17S)-9-fluoro-11-hydroxy-17-(2-hydroxyacetyl)-10,13,16-trirmethyl-7,8,11,12,14,15,16,17-octahydro-6H-cyclopenta[a]phenanthren-3-one]",Efficacy in treating psoriasis,efficacious
same,Safety in treating psoriasis,safe
